Species on record: Rattus norvegicus
Assay: Open TG-GATES - Regimen: Daily Repeat
Type: toxicity, organism-based, Sprague-Dawley
Set-up: regimen Daily Repeat, gender Male, age 6 weeks
Settings: in vivo, po, route gavage; for APTT / Bas / Eos / Fbg / Hb / Ht / Lym / MCH / MCHC / MCV / Mono / Neu / PT / Plat / RBC / Ret / WBC: tissue Blood; for LIVER: tissue Liver; for A/G / ALP / ALT / AST / BUN / CRE / Ca / Cl / DBIL / GLC / IP / K / LDH / Na / PL / RALB / TBIL / TC / TG / TP / gamma-GTP: tissue Plasma
[1] = 0 mg/kg, 72 h, dose level Control, time 3 day
[2] = 0 mg/kg, […], dose level Control, time 7 day
[3] = 0 mg/kg, […], dose level Control, time 14 day
[4] = 0 mg/kg, […], dose level Control, time 28 day
[5] = 5 mg/kg, 72 h, dose level Low, time 3 day
[6] = 5 mg/kg, […], dose level Low, time 7 day
[7] = 5 mg/kg, […], dose level Low, time 14 day
[8] = 5 mg/kg, […], dose level Low, time 28 day

## C=C(C)[C@H]1Cc2c(ccc3c2O[C@@H]2COc4cc(OC)c(OC)cc4[C@@H]2C3=O)O1 [ROTENONE]
[1]
  TERMINAL_BW: 213.4 g
  APTT: 16 s
  Bas: 0%
  Eos: 1%
  Fbg: 211.8 mg/dL
  Hb: 13.2 g/dL
  Ht: 40.7%
  Lym: 77.8%
  MCH: 20.8 pg
  MCHC: 32.4%
  MCV: 64.1 fL
  Mono: 7.8%
  Neu: 14%
  PT: 11.8 s
  Plat: 118 x10_4/uL
  RBC: 635 x10_4/ul
  Ret: 6.1%
  WBC: 92.8 x10_2/uL
  LIVER: 10 g
  A/G: 2.3
  ALP: 1677.6 IU/L
  ALT: 37.8 IU/L
  AST: 67.4 IU/L
  BUN: 18 mg/dL
  CRE: 0.4 mg/dL
  Ca: 11.3 mg/dL
  Cl: 104.2 meq/L
  DBIL: 0.014 mg/dL
  GLC: 187.2 mg/dL
  IP: 7.1 mg/dL
  K: 4.4 meq/L
  LDH: 96.6 IU/L
  Na: 140.6 meq/L
  PL: 141.8 mg/dL
  RALB: 3.8 g/dL
  TBIL: 0.042 mg/dL
  TC: 77.6 mg/dL
  TG: 105 mg/dL
  TP: 5.5 g/dL
  gamma-GTP: 0.4 IU/L
[2]
  TERMINAL_BW: 254 g
  APTT: 15.9 s
  Bas: 0%
  Eos: 1%
  Fbg: 239.4 mg/dL
  Hb: 13.2 g/dL
  Ht: 40.2%
  Lym: 80%
  MCH: 21.1 pg
  MCHC: 32.8%
  MCV: 64.3 fL
  Mono: 6%
  Neu: 13.2%
  PT: 11.6 s
  Plat: 122.4 x10_4/uL
  RBC: 626.2 x10_4/ul
  Ret: 5.5%
  WBC: 113.8 x10_2/uL
  LIVER: 12.8 g
  A/G: 2.1
  ALP: 1286.8 IU/L
  ALT: 35.2 IU/L
  AST: 60.6 IU/L
  BUN: 19 mg/dL
  CRE: 0.4 mg/dL
  Ca: 11.5 mg/dL
  Cl: 104.6 meq/L
  DBIL: 0.014 mg/dL
  GLC: 195.4 mg/dL
  IP: 7.7 mg/dL
  K: 4.5 meq/L
  LDH: 71.8 IU/L
  Na: 140.4 meq/L
  PL: 157.2 mg/dL
  RALB: 3.9 g/dL
  TBIL: 0.034 mg/dL
  TC: 81.2 mg/dL
  TG: 132.2 mg/dL
  TP: 5.8 g/dL
  gamma-GTP: 1 IU/L
[3]
  TERMINAL_BW: 305.5 g
  APTT: 14.9 s
  Bas: 0%
  Eos: 1%
  Fbg: 241.8 mg/dL
  Hb: 13.9 g/dL
  Ht: 41.9%
  Lym: 73.6%
  MCH: 20.5 pg
  MCHC: 33.1%
  MCV: 61.8 fL
  Mono: 4.6%
  Neu: 21%
  PT: 11.3 s
  Plat: 125.6 x10_4/uL
  RBC: 678.4 x10_4/ul
  Ret: 3.8%
  WBC: 106.4 x10_2/uL
  LIVER: 14.2 g
  A/G: 2.1
  ALP: 1512 IU/L
  ALT: 36.4 IU/L
  AST: 67.2 IU/L
  BUN: 18.4 mg/dL
  CRE: 0.4 mg/dL
  Ca: 11.5 mg/dL
  Cl: 104.8 meq/L
  DBIL: 0.01 mg/dL
  GLC: 186 mg/dL
  IP: 6.9 mg/dL
  K: 4.5 meq/L
  LDH: 111.6 IU/L
  Na: 139.6 meq/L
  PL: 156 mg/dL
  RALB: 4 g/dL
  TBIL: 0.03 mg/dL
  TC: 80 mg/dL
  TG: 131.8 mg/dL
  TP: 5.9 g/dL
  gamma-GTP: 1 IU/L
[4]
  TERMINAL_BW: 378.4 g
  APTT: 18 s
  Bas: 0%
  Eos: 1%
  Fbg: 217.6 mg/dL
  Hb: 14.9 g/dL
  Ht: 45%
  Lym: 72%
  MCH: 19.7 pg
  MCHC: 33.1%
  MCV: 59.3 fL
  Mono: 7.2%
  Neu: 19.8%
  PT: 12.5 s
  Plat: 115 x10_4/uL
  RBC: 758.8 x10_4/ul
  Ret: 2%
  WBC: 107.2 x10_2/uL
  LIVER: 15.3 g
  A/G: 2
  ALP: 1248 IU/L
  ALT: 32.2 IU/L
  AST: 58.6 IU/L
  BUN: 18.2 mg/dL
  CRE: 0.4 mg/dL
  Ca: 10.9 mg/dL
  Cl: 106.8 meq/L
  DBIL: 0.01 mg/dL
  GLC: 182.2 mg/dL
  IP: 5.7 mg/dL
  K: 4.5 meq/L
  LDH: 62.8 IU/L
  Na: 141.2 meq/L
  PL: 134.8 mg/dL
  RALB: 3.8 g/dL
  TBIL: 0.03 mg/dL
  TC: 62 mg/dL
  TG: 182.2 mg/dL
  TP: 5.7 g/dL
  gamma-GTP: 1 IU/L
[5]
  TERMINAL_BW: 226.1 g
  APTT: 17.7 s
  Bas: 0%
  Eos: 1%
  Fbg: 212.2 mg/dL
  Hb: 13 g/dL
  Ht: 39.1%
  Lym: 76.2%
  MCH: 21.3 pg
  MCHC: 33.2%
  MCV: 64.1 fL
  Mono: 5.6%
  Neu: 17.2%
  PT: 12.1 s
  Plat: 129 x10_4/uL
  RBC: 610.6 x10_4/ul
  Ret: 7.7%
  WBC: 114.4 x10_2/uL
  LIVER: 11.2 g
  A/G: 2.2
  ALP: 1376 IU/L
  ALT: 37.2 IU/L
  AST: 67.4 IU/L
  BUN: 19.2 mg/dL
  CRE: 0.4 mg/dL
  Ca: 11.6 mg/dL
  Cl: 104.8 meq/L
  DBIL: 0.014 mg/dL
  GLC: 188.2 mg/dL
  IP: 7.5 mg/dL
  K: 4.5 meq/L
  LDH: 111.2 IU/L
  Na: 142.4 meq/L
  PL: 152.4 mg/dL
  RALB: 3.8 g/dL
  TBIL: 0.032 mg/dL
  TC: 85.6 mg/dL
  TG: 78 mg/dL
  TP: 5.6 g/dL
  gamma-GTP: 0.4 IU/L
[6]
  TERMINAL_BW: 258.8 g
  APTT: 15.9 s
  Bas: 0%
  Eos: 0.8%
  Fbg: 227.4 mg/dL
  Hb: 13.4 g/dL
  Ht: 40.6%
  Lym: 68.2%
  MCH: 21.5 pg
  MCHC: 33%
  MCV: 65.3 fL
  Mono: 9.6%
  Neu: 21.6%
  PT: 11.6 s
  Plat: 117.4 x10_4/uL
  RBC: 622.8 x10_4/ul
  Ret: 5.7%
  WBC: 93.6 x10_2/uL
  LIVER: 13.1 g
  A/G: 2.1
  ALP: 1367.8 IU/L
  ALT: 39.6 IU/L
  AST: 65 IU/L
  BUN: 18.2 mg/dL
  CRE: 0.4 mg/dL
  Ca: 11.7 mg/dL
  Cl: 103.2 meq/L
  DBIL: 0.018 mg/dL
  GLC: 202.2 mg/dL
  IP: 7.4 mg/dL
  K: 4.4 meq/L
  LDH: 110.6 IU/L
  Na: 140 meq/L
  PL: 150.8 mg/dL
  RALB: 3.8 g/dL
  TBIL: 0.04 mg/dL
  TC: 79.4 mg/dL
  TG: 106.6 mg/dL
  TP: 5.6 g/dL
  gamma-GTP: 0.6 IU/L
[7]
  TERMINAL_BW: 318.2 g
  APTT: 15.7 s
  Bas: 0%
  Eos: 1%
  Fbg: 238.2 mg/dL
  Hb: 13.9 g/dL
  Ht: 41.7%
  Lym: 75.8%
  MCH: 20.6 pg
  MCHC: 33.2%
  MCV: 62.2 fL
  Mono: 5.2%
  Neu: 18.4%
  PT: 11.4 s
  Plat: 130.8 x10_4/uL
  RBC: 671.4 x10_4/ul
  Ret: 3.8%
  WBC: 138.2 x10_2/uL
  LIVER: 15.3 g
  A/G: 2.1
  ALP: 1397.6 IU/L
  ALT: 36.6 IU/L
  AST: 68 IU/L
  BUN: 19.4 mg/dL
  CRE: 0.4 mg/dL
  Ca: 11.8 mg/dL
  Cl: 105 meq/L
  DBIL: 0.012 mg/dL
  GLC: 188.6 mg/dL
  IP: 6.9 mg/dL
  K: 4.6 meq/L
  LDH: 142.4 IU/L
  Na: 139.2 meq/L
  PL: 164.2 mg/dL
  RALB: 3.9 g/dL
  TBIL: 0.03 mg/dL
  TC: 85.4 mg/dL
  TG: 152.4 mg/dL
  TP: 5.8 g/dL
  gamma-GTP: 1 IU/L
[8]
  TERMINAL_BW: 393.8 g
  APTT: 19 s
  Bas: 0%
  Eos: 1.2%
  Fbg: 204.2 mg/dL
  Hb: 14.7 g/dL
  Ht: 44.3%
  Lym: 74.6%
  MCH: 19.3 pg
  MCHC: 33.2%
  MCV: 58.2 fL
  Mono: 5%
  Neu: 19.6%
  PT: 12.6 s
  Plat: 117.6 x10_4/uL
  RBC: 761.4 x10_4/ul
  Ret: 2.1%
  WBC: 107.4 x10_2/uL
  LIVER: 16.3 g
  A/G: 1.8
  ALP: 1025.4 IU/L
  ALT: 33 IU/L
  AST: 64.2 IU/L
  BUN: 18 mg/dL
  CRE: 0.4 mg/dL
  Ca: 10.7 mg/dL
  Cl: 105.8 meq/L
  DBIL: 0.01 mg/dL
  GLC: 175.2 mg/dL
  IP: 6.2 mg/dL
  K: 4.5 meq/L
  LDH: 101.8 IU/L
  Na: 141.2 meq/L
  PL: 134.8 mg/dL
  RALB: 3.8 g/dL
  TBIL: 0.032 mg/dL
  TC: 65.6 mg/dL
  TG: 143 mg/dL
  TP: 6 g/dL
  gamma-GTP: 1 IU/L

Reference: ChEMBL document CHEMBL3885861, “Open TG-GATES”
